Results published in US10793579B2, “Bicyclic-fused heteroaryl or aryl compounds” (Pfizer Inc., priority 2014, dated 2020).
pIC50: −log10 of the molar value. Like-named read-outs stand apart in the source and are kept apart here.

Columns and labels:
[1] = tested on: R848-induced TNFα production by human peripheral blood mononuclear cells (PBMCs); test: R848 Induced TNFα in Human PBMC Assay; format: cell-based; conditions: for IC50: Homo sapiens, PBMC, read-out: R848-induced TNFa PBMC IC50 (nM); for pIC50: human PBMC, absence of serum, read-out: R848-induced TNFa PBMC IC50
Excerpt: R848 Induced TNFα in Human PBMC Assay.
This protocol is for R848-induced TNFα production by human peripheral blood mononuclear cells (PBMCs). […] The assay is used to assess cell-based potency of small molecule inhibitors of IRAK4 in the absence of serum.
The PBMCs in the interphase layer were collected and washed with PBS via centrifugation multiple times until the supernatant is clear. The purified PBMCs were re-suspended in RPMI (Roswell Park Memorial Institute) media (Sigma-Aldrich).
For the assay, a compound dilution plate containing a top concentration of 4 mM compound in DMSO was serially diluted 4-fold for 11 times. 250 nL of the compound dilution plate was spotted into a 384-well, flat bottom with IId, TC-treated, black with clear bottom, sterile, polystyrene plate (Corning Life Sciences).
10 μL of anti-TNFα antibody labeled with MSD SULFO-TAG at 50 μg/mL was added to each well and allowed to incubate overnight at 4° C. […] The plates were then imaged on an MSD Sector Imager 6000.

[2] = tested on: collagen-induced arthritis (hind paw volume); test: In Vivo Rat Collagen-Induced Arthritis Model; conditions: Lewis rat
Procedure: In Vivo Rat Collagen-Induced Arthritis Model.
Efficacy of IRAK4 compounds of the present invention was also evaluated in a rat in vivo model of rheumatoid arthritis (M. Hegen, J. C. Keith, Jr, M. Collins, C. L. Nickerson-Nutter, Ann. Rheum. Dis. 2008, 67, 1505-1515). An exemplary protocol for this in vivo model follows.
Female Lewis rats, approximately 7 weeks old, were immunized with an emulsion of type II collagen (CII) and incomplete Freund's adjuvant (IFA) on day 0 and received a boost of CII/IFA on day 7. Hind paw volume increase was taken by plethysmograph. Animals were randomly enrolled into treatment groups based on the development of disease. Beginning on day 11 post immunization, rats were enrolled into random treatment groups based on an increase in a single hind paw volume compared to day 7 post immunization baseline measurements.
Ten rats were enrolled per treatment group with the exception of the naive control group, which contained two rats. Day 0 was designated as the first treatment day, and paw measurements are taken daily by plethysmograph. The rats were weighed on a daily basis.
IRAK4 inhibitors are efficacious in the Lewis rat model of collagen-induced arthritis.

[3] = target: human IRAK4 FL (Full Length) (Homo sapiens (Human), UniProt Q9NWZ3); test: IRAK4 Enzymatic DELFIA Assay, Protocol A; format: biochemical; conditions: 0.6 mM ATP
Chain of human IRAK4 FL (Full Length) (Q9NWZ3 whole entry): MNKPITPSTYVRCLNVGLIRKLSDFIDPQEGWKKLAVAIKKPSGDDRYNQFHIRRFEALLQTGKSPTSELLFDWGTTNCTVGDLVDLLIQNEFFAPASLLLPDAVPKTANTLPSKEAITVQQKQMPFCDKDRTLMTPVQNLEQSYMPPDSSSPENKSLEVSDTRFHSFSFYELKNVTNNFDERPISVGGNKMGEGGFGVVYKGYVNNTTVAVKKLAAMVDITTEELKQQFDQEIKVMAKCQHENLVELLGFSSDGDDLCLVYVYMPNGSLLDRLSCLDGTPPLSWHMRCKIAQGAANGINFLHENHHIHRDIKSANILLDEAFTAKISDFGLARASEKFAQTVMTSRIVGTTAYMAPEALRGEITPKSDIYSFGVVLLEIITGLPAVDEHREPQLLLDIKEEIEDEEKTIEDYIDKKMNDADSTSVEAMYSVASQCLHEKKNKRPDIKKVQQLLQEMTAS

With `C[C@@H]1[C@H](F)C(=O)N[C@@H]1COc1nccc2cc(C(N)=O)c(OC3CC3)cc12` [Example 281, 7-(cyclopropyloxy)-1-{[(2S,3S,4S)-4-fluoro-3-methyl-5-oxopyrrolidin-2-yl]methoxy}isoquinoline-6-carboxamide] the IC50 [1] was 127 nM.

With `CC(C)Oc1cc2c(OC[C@@H]3CCC(=O)N3)nccc2cc1C(N)=O` [Example 26, 1-{[(2S)-5-oxopyrrolidin-2-yl]methoxy}-7-(propan-2-yloxy)isoquinoline-6-carboxamide] the “days with significant reduction of hind paw swelling in CIA rats (t-test, p<0.05 vs. vehicle)” value ([2]; 30 mg/kg PO, BID, therapeutic treatment for 8 days) was “Day 2-Day 8”, the “days with significant reduction of hind paw swelling in CIA rats (t-test, p<0.05 vs. vehicle)” value ([2]; 100 mg/kg PO, BID, therapeutic treatment for 8 days) was “Day 1-Day 8 (end)” and the “hind paw swelling in CIA rats” value ([2]; 10 mg/kg PO, BID) was “transiently significant reduction in hind paw swelling only on Day 5 and Day 6 post treatment”. The “hind paw swelling in CIA rats” value ([2]; therapeutic treatment BID daily for 8 days, t-test p<0.05 vs. vehicle) was “reduced the hind paw swelling in CIA rats significantly”.

Work on `COc1cc2c(OC[C@H]3NC(=O)[C@@H]4[C@@H](CF)[C@@H]43)nccc2cc1C(N)=O` [Example 304, 1-{[(1R,2S,5S)-6-(fluoromethyl)-4-oxo-3-azabicyclo[3.1.0]hex-2-yl]methoxy}-7-methoxyisoquinoline-6-carboxamide] yielded a pIC50 [1] of 7.46.

`Cc1ccc(-n2nc(C(C)(C)C)cc2NC(=O)Nc2ccc(OCCN3CCOCC3)c3ccccc23)cc1` [BIRB796, reference compound] was tested, and the “days with significant reduction of hind paw swelling in CIA rats (t-test, p<0.05 vs. vehicle)” value ([2]; 30 mg/kg PO, QD, positive control (p38 inhibitor)) was “Day 1-Day 8”.

For `COc1cc2c(OC[C@H]3C[C@@H](F)C(=O)N3)nccc2cc1C(N)=O` [Example 275, 1-{[(2R,4R)-4-fluoro-5-oxopyrrolidin-2-yl]methoxy}-7-methoxyisoquinoline-6-carboxamide], the pIC50 [3] was 6.92 and the IC50 [1] was 5140 nM.

Molecule `COc1cc2c(OC[C@H]3NC(=O)[C@H]4C3[C@H]4CF)nccc2cc1C(N)=O` (stereo in doubt) [Example 303, 1-(((1S,2S,5S,6R)-6-(fluoromethyl)-4-oxo-3-azabicyclo[3.1.0]hexan-2-yl)methoxy)-7-methoxyisoquinoline-6-carboxamide] has a pIC50 [1] of 5.22.

`COc1cc2c(OC[C@@H]3C[C@@](F)(CC(F)(F)F)C(=O)N3)cccc2cc1C(N)=O` [Example 240, 5-{[(2S,4R)-4-fluoro-5-oxo-4-(2,2,2-trifluoroethyl)pyrrolidin-2-yl]methoxy}-3-methoxynaphthalene-2-carboxamide] showed a pIC50 [3] of 8.64.

Work on `COc1cc2c(OC[C@@H]3C[C@](F)(CC(F)(F)F)C(=O)N3)cccc2cc1C(N)=O` [Example 241, 5-{[(2S,4S)-4-fluoro-5-oxo-4-(2,2,2-trifluoroethyl)pyrrolidin-2-yl]methoxy}-3-methoxynaphthalene-2-carboxamide] yielded a pIC50 [3] of 6.79.
